Molecular target: T1, P2X purinoceptor 7 (Homo sapiens, UniProt Q99572)
T1 sequence (Q99572 whole entry): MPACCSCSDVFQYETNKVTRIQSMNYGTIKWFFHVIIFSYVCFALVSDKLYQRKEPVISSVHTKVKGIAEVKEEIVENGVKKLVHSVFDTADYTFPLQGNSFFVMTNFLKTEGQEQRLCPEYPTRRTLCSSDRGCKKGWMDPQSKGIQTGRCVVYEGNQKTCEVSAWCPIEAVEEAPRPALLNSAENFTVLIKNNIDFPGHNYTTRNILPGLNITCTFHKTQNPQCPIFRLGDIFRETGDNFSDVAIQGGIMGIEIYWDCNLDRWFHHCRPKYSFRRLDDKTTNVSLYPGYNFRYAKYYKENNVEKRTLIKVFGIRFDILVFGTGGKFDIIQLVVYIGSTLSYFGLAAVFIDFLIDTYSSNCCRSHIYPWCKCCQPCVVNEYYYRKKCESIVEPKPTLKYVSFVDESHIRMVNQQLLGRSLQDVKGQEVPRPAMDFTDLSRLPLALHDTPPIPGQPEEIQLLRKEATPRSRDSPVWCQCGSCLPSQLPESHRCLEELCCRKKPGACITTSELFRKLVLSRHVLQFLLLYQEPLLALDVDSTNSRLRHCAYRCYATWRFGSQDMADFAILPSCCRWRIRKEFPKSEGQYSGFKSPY
Assay: SUPPLEMENTARY: Inhibition of human P2X7 receptor assessed as inhibition of ethidium bromide accumulation. Same assay as CHEMBL1103860

Row | IC50 | Structure (SMILES)
1 | 1000 nM | O=C1C(=O)N(c2cccc3cccnc23)CCN1Cc1ccc(F)cc1Cl
2 | 31.6 nM | Cc1ccccc1N1CCN(C(C)c2ccc(Cl)cc2Cl)C(=O)C1=O (stereo not given)
3 | 31.6 nM | CN1C(=O)N(C2CCNCC2)CC1C(=O)NCc1cccc(C(F)(F)F)c1Cl (stereo not given)
4 | 39.8 nM | Cn1ncc(I)c1CC(=O)NCc1ccc(Cl)cc1Cl
5 | 200 nM | O=C1C(=O)N(c2ccc3c(c2)OCCO3)CCN1Cc1ccc(F)cc1Cl
6 | 1000 nM | Cc1ccccc1N1CCN(Cc2c(F)cccc2Cl)C(=O)C1=O
7 | 79.4 nM | Cc1ccc(N2CCN(Cc3ccc(F)cc3Cl)C(=O)C2=O)c(C)c1
8 | 7.94 nM | Cc1ccc(C)c(N2CCN(Cc3ccc(F)cc3Cl)C(=O)C2=O)c1
9 | 501 nM | Cc1ccc(N2CCN(Cc3ccc(F)cc3Cl)C(=O)C2=O)cc1C
10 | 1000 nM | Cc1cc(C)cc(N2CCN(Cc3ccc(F)cc3Cl)C(=O)C2=O)c1
11 | 7.94 nM | CN1C(=O)N(c2ccccn2)CC1C(=O)NCc1cccc(C(F)(F)F)c1Cl (stereo not given)
12 | 12.6 nM | CN1C(=O)N(c2cccnc2)CC1C(=O)NCc1cccc(C(F)(F)F)c1Cl (stereo not given)
13 | 5.01 nM | Cc1ccccc1N1CCN(Cc2c(C)cc(Cl)cc2Cl)C(=O)C1=O
14 | 501 nM | Cc1ccccc1CN1CCN(c2ccccc2C)C(=O)C1=O
15 | 398 nM | Cc1ccccc1N1CCN(Cc2ccc(Cl)cc2)C(=O)C1=O
16 | 1000 nM | Cc1ccccc1N1CCN(Cc2cc(Cl)ccc2Cl)C(=O)C1=O
17 | 158 nM | Cc1cc(F)ccc1CN1CCN(c2ccccc2C)C(=O)C1=O
18 | 100 nM | Cc1c(F)cccc1N1CCN(Cc2ccc(F)cc2Cl)C(=O)C1=O
19 | 79.4 nM | COc1c(F)cccc1N1CCN(Cc2ccc(F)cc2Cl)C(=O)C1=O
20 | 39.8 nM | Cc1ccc(F)cc1N1CCN(Cc2ccc(F)cc2Cl)C(=O)C1=O
21 | 50.1 nM | Cc1ccc(C(F)(F)F)cc1N1CCN(Cc2ccc(F)cc2Cl)C(=O)C1=O
22 | 10 nM | COc1ccc(C)c(N2CCN(Cc3ccc(F)cc3Cl)C(=O)C2=O)c1
23 | 100 nM | COc1ccc(F)cc1N1CCN(Cc2ccc(F)cc2Cl)C(=O)C1=O

Row | IC50 | Structure (SMILES)
24 | 15.8 nM | Cc1ccccc1N1CCN(C(=O)c2cccc(Cl)c2Cl)CC1=O
25 | 631 nM | N#Cc1c(F)cccc1N1CCN(Cc2ccc(F)cc2Cl)C(=O)C1=O
26 | 251 nM | Cc1ccccc1CN1CCN(c2cccc(Cl)c2Cl)C(=O)C1=O
27 | 200 nM | O=C1C(=O)N(c2cccc(Cl)c2Cl)CCN1Cc1ccccc1Cl
28 | 501 nM | O=C1C(=O)N(c2cccc(Cl)c2Cl)CCN1Cc1cccc(Cl)c1
29 | 794 nM | O=C1C(=O)N(c2cccc(Cl)c2Cl)CCN1Cc1ccc(Cl)cc1
30 | 100 nM | O=C1C(=O)N(c2cccc(Cl)c2Cl)CCN1Cc1ccc(F)cc1Cl
31 | 398 nM | Cc1cccc(N2C[C@@H](C(=O)NCc3ccc(F)cc3Cl)N(C)C2=O)n1
32 | 10 nM | Cc1ccc(N2C[C@@H](C(=O)NCc3cccc(C(F)(F)F)c3Cl)N(C)C2=O)cn1
33 | 63.1 nM | Cc1ccc(N2C[C@@H](C(=O)NCc3ccc(F)cc3Cl)N(C)C2=O)cn1
34 | 398 nM | O=C1C(=O)N(c2cccc(I)c2)CCN1Cc1ccc(F)cc1Cl
35 | 50.1 nM | Cc1ncccc1N1C[C@@H](C(=O)NCc2ccc(F)cc2Cl)N(C)C1=O
36 | 39.8 nM | CN1C(=O)NC[C@H]1C(=O)NCc1ccc(F)cc1Cl
37 | 6.31 nM | CN1C(=O)N(c2ccccn2)C[C@H]1C(=O)NCc1cccc(C(F)(F)F)c1Cl
38 | 79.4 nM | CN1C(=O)N(c2ccccn2)C[C@H]1C(=O)NCc1ccc(F)cc1Cl
39 | 50.1 nM | CN1C(=O)N(c2cccnc2)C[C@H]1C(=O)NCc1ccc(F)cc1Cl
40 | 501 nM | Cc1cnccc1N1CCN(Cc2ccc(F)cc2Cl)C(=O)C1=O
41 | 25.1 nM | COc1cccc(N2CCN(Cc3ccc(F)cc3Cl)C(=O)C2=O)c1C
42 | 12.6 nM | O=C1C(=O)N(c2ccccc2Br)CCN1Cc1ccc(F)cc1Cl
43 | 501 nM | Cc1ccccc1N1CCN(C(=O)c2ccc(F)cc2Cl)CC1=O
44 | 50.1 nM | Cc1cccc(N2CCN(Cc3ccc(F)cc3Cl)C(=O)C2=O)c1N1CCOCC1
45 | 39.8 nM | O=C1C(=O)N(c2cccc(Cl)c2N2CCOCC2)CCN1Cc1ccc(F)cc1Cl
